Experimental data from US20230364051A1, “FORMULATIONS AND METHODS FOR IMPROVING AVIAN HEALTH” (CORNELL UNIVERSITY, priority 2022, published 2023).
Marks after values point to notes of the source that are not given here.

How the values were obtained:
[1] = Pectoral muscle glycogen analysis after intraamniotic administration; format: in vivo, Gallus gallus; details: for Average Glycogen: day 17, pectoral muscle at hatch
Experimental: (§1) Cornish-cross fertile broiler eggs (Gallus gallus, n = 39) were obtained from a commercial hatchery (Moyer’s chicks, Quakertown, PA, USA). The eggs were incubated under optimal conditions at the Cornell University Animal Science Poultry Farm Incubator [18]. All animal protocols were approved by Cornell University Institutional Animal Care and Use committee (IACUC #2020-0077). At day 17 of embryonic incubation, eggs containing viable embryos were weighed and divided into 5 groups, with all treatment groups assigned eggs of similar weight frequency distribution. Each group was then injected with the specific solution (1 mL per egg) with a 21-gauge needle into the amniotic fluid. Treatments in powder form were separately diluted in DI H2O. Two treatment groups (1.25, 2.5 wt. %), two controls (H2O and non-injected), and a positive control (5 wt. % inulin) were administered. After injection, the injection holes were sealed with cellophane tape and the eggs were placed in hatching baskets such that each treatment was equally represented at each incubator location. Immediately upon hatch (day 21), blood was taken for hemoglobin determination and all chicks were then euthanized by CO2 exposure. The small intestine, pectoral muscle, cecum, and liver were collected, immediately frozen in liquid nitrogen, and then stored in a -80° C. freezer until analysis.
Glycogen analysis was obtained from pectoralis muscle as previously described. Briefly, the frozen pectoral muscle samples were homogenized in 8 wt. % perchloric acid. Samples were then centrifuged at 12,000 × g for 15 minutes. The supernatant was removed, and 1.0 mL of petroleum ether was added to each tube. After mixing, the petroleum ether fraction was removed and samples from the bottom layer were transferred to a 96-well plate containing 300 µL of color reagent. All samples were read at a wavelength of 450 nm in an ELISA reader and the amount of glycogen was calculated according to a standard curve. The amount of glycogen present in pectoral sample was determined by multiplying the weight of the tissue by the amount of glycogen per 1 g of wet tissue.

DcytB = assay: Duodenal gene expression by RT-qPCR: DcytB; format: in vivo, Gallus gallus; details: genistein treatment groups vs no injection, H2O and inulin, p < 0.05; duodenum
Experimental: (§2) Cornish-cross fertile broiler eggs (Gallus gallus, n = 39) were obtained from a commercial hatchery (Moyer’s chicks, Quakertown, PA, USA). The eggs were incubated under optimal conditions at the Cornell University Animal Science Poultry Farm Incubator [18]. All animal protocols were approved by Cornell University Institutional Animal Care and Use committee (IACUC #2020-0077). At day 17 of embryonic incubation, eggs containing viable embryos were weighed and divided into 5 groups, with all treatment groups assigned eggs of similar weight frequency distribution. Each group was then injected with the specific solution (1 mL per egg) with a 21-gauge needle into the amniotic fluid. Treatments in powder form were separately diluted in DI H2O. […]
(§3) Total RNA was extracted from 30 mg of the proximal duodenal (n=6) or liver tissues (n=6) using Qiagen RNeasy Mini Kit (Qiagen Inc., Valencia, CA) according to the manufacturer’s protocol. […] RNA was quantified by absorbance at 260-280 nm using a NanoDrop 2000 (ThermoFisher Scientific, Waltham, MA). […]
(§4) As previously described. cDNA was generated using a 20 uL reverse transcriptase (RT) reaction in a BioRad C1000 touch thermocycler using the Improm-II Reverse Transcriptase Kit (Catalog #A1250; Promega, Madison, WI, USA). […] Genomic DNA contamination was assessed using a RT-PCR assay for the reference of genes samples. […]

[2] = system: cecal microbiota pathways; assay: Cecal 16S rRNA gene sequencing, LEfSe analysis; format: in vivo, Gallus gallus; details: genistein treatment; cecal contents
Experimental: as §1, with “analysis. […]” for “analysis.”

glial cells = details: via ceruloplasmin and ferroportin-1; cited from earlier work
DMT1 = assay: Duodenal gene expression by RT-qPCR: DMT1; format: in vivo, Gallus gallus; details: 1.25 wt. % genistein vs no injection and H2O controls, p < 0.05; duodenum
Experimental: as §2, §3, §4

ZIP6 = assay: Duodenal gene expression by RT-qPCR: ZIP6; format: in vivo, Gallus gallus; details: 2.5 wt. % genistein vs all other treatment groups, p < 0.05; duodenum
Experimental: as §2, §3, §4

O=c1c(-c2ccc(O)cc2)coc2cc(O)cc(O)c12 [Genistein, genistein]
Average Glycogen ([1]; 1.25 wt. % genistein intraamniotic): 0.008 ± 0.003 ^ab mg/g | Average Glycogen ([1]; 2.5 wt. % genistein intraamniotic): 0.015 ± 0.004 ^a mg/g | Average glycogen vs control ([1]; genistein treated groups vs no injection, p > 0.05): no significant difference | Gene expression of DcytB (DcytB): significantly downregulated | Pathways associated with de novo synthesis of vitamin B12 (LEfSe) [2]: enriched | Fe export (glial cells): significantly increased | Gene expression of DMT1 (DMT1): downregulated | Gene expression of ZIP6 (ZIP6): significantly downregulated
